Source: US8592175B2, “Nitroreductase enzymatic substrates” (bioMérieux, S.A., priority 2009, dated 2013)

Tests used:
Experiment in all cases: Color, fluorescence and growth of colonies on Columbia medium with nitroreductase substrate
Assay type in all cases: cell-based
Conditions in all cases: 40 mg substrate in 400 ml Columbia medium, 24 hours at 37° C.
[1] = system: Staphylococcus aureus NCTC 11 939; parameters: key to Growth: NG: no growth; 0.5: low growth; 1: moderate growth; 2: good growth; key to Fluo.: fluorescence of the colonies / Col.: color of the colonies: —: no color/fluorescence
Experimental: (§1) 40 mg of each of the substrates were dissolved in 4 ml of dimethylsulfoxide and added to 400 ml of previously autoclaved Columbia medium. The 5 media were distributed in Petri dishes 90 mm in diameter at the rate of 20 ml per dish. Seventeen strains of microorganisms obtained from collections and belonging to various species of bacteria and yeasts are inoculated as spots of about 10 000 colony forming units. The media are incubated for 24 hours at 37° C. and then the colonies formed are examined visually and under a UV lamp at 365 nm.

[2] = system: Salmonella typhimurium NCTC 74; parameters: key to Growth: NG: no growth; 0.5: low growth; 1: moderate growth; 2: good growth; key to Fluo.: fluorescence of the colonies / Col.: color of the colonies: —: no color/fluorescence
Experimental: as §1

[3] = system: Yersinia enterocolitica NCTC 11 176; parameters: key to Growth: NG: no growth; 0.5: low growth; 1: moderate growth; 2: good growth; key to Fluo.: fluorescence of the colonies / Col.: color of the colonies: —: no color/fluorescence
Experimental: as §1

[4] = system: Staphylococcus epidermidis NCTC 11 047; parameters: key to Growth: NG: no growth; 0.5: low growth; 1: moderate growth; 2: good growth; key to Fluo.: fluorescence of the colonies / Col.: color of the colonies: —: no color/fluorescence
Experimental: as §1

[5] = system: Staphylococcus aureus NCTC 6 571; parameters: key to Growth: NG: no growth; 0.5: low growth; 1: moderate growth; 2: good growth; key to Fluo.: fluorescence of the colonies / Col.: color of the colonies: —: no color/fluorescence
Experimental: as §1

[6] = system: Providencia rettgeri NCTC 7 475; parameters: key to Growth: NG: no growth; 0.5: low growth; 1: moderate growth; 2: good growth; key to Fluo.: fluorescence of the colonies / Col.: color of the colonies: —: no color/fluorescence
Experimental: as §1

[7] = system: Enterococcus faecium NCTC 7 171; parameters: key to Growth: NG: no growth; 0.5: low growth; 1: moderate growth; 2: good growth; key to Fluo.: fluorescence of the colonies / Col.: color of the colonies: —: no color/fluorescence
Experimental: as §1

[8] = system: Candida albicans ATCC 90 028; parameters: key to Growth: NG: no growth; 0.5: low growth; 1: moderate growth; 2: good growth; key to Fluo.: fluorescence of the colonies / Col.: color of the colonies: —: no color/fluorescence
Experimental: as §1

[9] = system: Streptococcus pyogenes NCTC 8 306; parameters: key to Growth: NG: no growth; 0.5: low growth; 1: moderate growth; 2: good growth; key to Fluo.: fluorescence of the colonies / Col.: color of the colonies: —: no color/fluorescence
Experimental: as §1

[10] = system: Bacillus subtilis NCTC 9 372; parameters: key to Growth: NG: no growth; 0.5: low growth; 1: moderate growth; 2: good growth; key to Fluo.: fluorescence of the colonies / Col.: color of the colonies: —: no color/fluorescence
Experimental: as §1

[11] = system: Enterococcus faecalis NCTC 775; parameters: key to Growth: NG: no growth; 0.5: low growth; 1: moderate growth; 2: good growth; key to Fluo.: fluorescence of the colonies / Col.: color of the colonies: —: no color/fluorescence
Experimental: as §1

[12] = system: Candida glabrata NCPF 3 943; parameters: key to Growth: NG: no growth; 0.5: low growth; 1: moderate growth; 2: good growth; key to Fluo.: fluorescence of the colonies / Col.: color of the colonies: —: no color/fluorescence
Experimental: as §1

[13] = system: Pseudomonas aeruginosa NCTC 10 662; parameters: key to Growth: NG: no growth; 0.5: low growth; 1: moderate growth; 2: good growth; key to Fluo.: fluorescence of the colonies / Col.: color of the colonies: —: no color/fluorescence
Experimental: as §1

[14] = system: Listeria monocytogenes NCTC 11 994; parameters: key to Growth: NG: no growth; 0.5: low growth; 1: moderate growth; 2: good growth; key to Fluo.: fluorescence of the colonies / Col.: color of the colonies: —: no color/fluorescence
Experimental: as §1

[15] = system: Serratia marcescens NCTC 10 211; parameters: key to Growth: NG: no growth; 0.5: low growth; 1: moderate growth; 2: good growth
Experimental: as §1

[16] = system: Enterobacter cloacae NCTC 11 936; parameters: key to Growth: NG: no growth; 0.5: low growth; 1: moderate growth; 2: good growth
Experimental: as §1

[17] = system: Escherichia coli NCTC 10 418; parameters: key to Growth: NG: no growth; 0.5: low growth; 1: moderate growth; 2: good growth
Experimental: as §1

COc1cc([N+](=O)[O-])ccc1C=Cc1cc[n+](C)c2ccccc12.[I-] [4NMSMQ^+I, 4-(4′-nitro-2′-methoxystyryl)-N-methylquinolinium iodide]
0.5: Growth [6] | Growth [7] | Growth [8]
1: Growth [2] | Growth [9] | Growth [13]
—: Fluo.: fluorescence of the colonies ([1]; UV lamp at 365 nm) | Fluo.: fluorescence of the colonies ([2]; UV lamp at 365 nm) | Col.: color of the colonies ([2]; examined visually) | Fluo.: fluorescence of the colonies ([3]; UV lamp at 365 nm) | Col.: color of the colonies ([3]; examined visually) | Fluo.: fluorescence of the colonies ([4]; UV lamp at 365 nm) | Fluo.: fluorescence of the colonies ([5]; UV lamp at 365 nm) | Fluo.: fluorescence of the colonies ([6]; UV lamp at 365 nm) | Col.: color of the colonies ([6]; examined visually) | Fluo.: fluorescence of the colonies ([7]; UV lamp at 365 nm) | Col.: color of the colonies ([7]; examined visually) | Fluo.: fluorescence of the colonies ([8]; UV lamp at 365 nm) | Col.: color of the colonies ([8]; examined visually) | Fluo.: fluorescence of the colonies ([9]; UV lamp at 365 nm) | Col.: color of the colonies ([9]; examined visually) | Fluo.: fluorescence of the colonies ([10]; UV lamp at 365 nm) | Fluo.: fluorescence of the colonies ([11]; UV lamp at 365 nm) | Fluo.: fluorescence of the colonies ([12]; UV lamp at 365 nm) | Col.: color of the colonies ([12]; examined visually) | Fluo.: fluorescence of the colonies ([13]; UV lamp at 365 nm) | Col.: color of the colonies ([13]; examined visually) | Fluo.: fluorescence of the colonies ([14]; UV lamp at 365 nm) | Col.: color of the colonies ([14]; examined visually)
2: Growth [1] | Growth [3] | Growth [4] | Growth [5] | Growth [10] | Growth [11] | Growth [14] | Growth [15] | Growth [16] | Growth [17]
NG: Growth [12]
